From patent US8372808B2, “Suppression of glial fibrillary acidic protein” (Wisconsin Alumni Research Foundation, priority 2008, dated 2013)
Where two headings read alike, the source gives them in different places.

Legend:
[1] = system: 2.2 kb human GFAP promoter; test: hGFAP promoter luciferase activity assay in 172.9 cells (primary astrocytes from dual luciferase transgenic mice); type: cell-based; details: for % GFAP reductions, luciferace expression from hGFAP promoter: tertiary screen, 48 hr exposure, at the MTDcc; for suppression in the promoter assay: secondary screen, 10 μM, 48 hours
Experimental: Cell-based assays were performed as four different screens using enriched cortical primary astrocyte cultures developed from transgenic mice expressing both firefly and Renilla luciferase reporter genes were generated. Briefly, the'firefly luciferase was placed under the control of a 2.2 kb human GFAP promoter to monitor GFAP transcription, and the Renilla luciferase was placed under the control of a 0.5 kb human GAPDH (glyceraldehyde 3-phosphate dehydrogenase) promoter to monitor transcription of a housekeeping gene for signal normalization. See section B, below for more detail regarding the development of transgenic mouse strains. Cells used in the following examples (e.g., the cortical primary astrocyte cells termed “172.9 cells,” described below) were developed from the transgenic mice described in section B.
Briefly, the cortices from individual pups were freed of meninges and placed into DMEM (Gibco) without serum, mechanically disassociated into single cells, suspended in medium containing DMEM supplemented with 10% fetal bovine serum (FBS; Hyclone), 100 U/ml penicillin, 100 μg/ml streptomycin (Gibco), seeded into T25 flasks (one brain per flask), and maintained in a humidified 5% CO2 atmosphere at 37° C. […] Medium was changed every 3 days. At 14-16 days in vitro (DIV), the flasks were shaken overnight at 200 rpm to remove oligodendrocytes and microglia. […] The cells were then suspended in DMEM with 10% FBS and plated (“passage 2”) on either 35 mm dishes, […], or 96-well plates (Corning) as needed. Cells were grown for varying days in vitro (DIV) at passage 2 and then used for various experiments. Tissue culture dishes and plates were pre-coated with 100 μg/ml poly-L-lysine for 1 h in a humidified 5% CO2 atmosphere at 37° C., and then allowed to air dry. […] Cell density was measured with the Vi-CELL cell counter (Beckman Coulter) or hemocytometer by the trypan-blue exclusion method. For simplicity, cells are referred to as “172.9 cells.”
Briefly, 172.9 cells were plated on poly-L coated white 96-well plates at a density of 5000 cells per well, in 100 μl DMEM with 10% FBS. At twenty-four hours, cells were exposed to the different compounds at a final concentration of 10 μM (diluted from a 50 mM stock) prepared in new medium (DMEM with 10% FBS). […] After exposure to compounds, luciferase activity in the primary and secondary screenings was determined by adding 30 μl of Bright-Glo™ reagent (Promega) to the 100 μl of media and cells of each well in the white 96-well plates with the Biomek® FX liquid handler (Beckman Coulter). After incubation for 1 minute at room temperature, signals were measured with the Safire 2 plate reader using Magellan™ software (Tecan). Other specific methods and equipment are known in the art and can be used to measure luciferase expression levels. This assay method is termed the “hGFAP promoter luciferase activity assay.” A reduction in luciferase expression as determined by this assay is termed “hGFAP promoter luciferase reduction.” For some assays that were aimed at confirming results of the initial screens, the same amount of Bright-Glo™ reagent was applied to each well in 96-well plates and signals were detected with the GloRunner™ Microplate Luminometer (Turner Biosystems) using the Dual-Glo® luciferase assay according to the manufacturer's recommendations (E1910, Promega).
In the secondary screen, cells were plated in a 96-well plate as described above for the primary screen.
Some compounds were unavailable outside of the library collections, and could not be further tested.
Each compound and concentration was analyzed in quadruplicate wells.
Compounds were tested at eight different concentrations ranging from 0-20 μM. In addition, GFAP protein levels were measured using a sandwich ELISA, which has greater sensitivity and is more accurate than the cell-based ELISA used in the primary screens.

mGFAP protein = test: cell-based GFAP protein level assay (cell-based ELISA) in 172.9 cells; set-up: species or system mouse; details: for % GFAP reductions, mGFAP protein via ELISA: tertiary screen, 48 hr exposure, at the MTDcc; for suppression in the protein assay: secondary screen, 10 μM, 48 hours
172.9 cells = test: cell viability (CellTiter-Glo) / MTDcc in 172.9 cells
Experimental: Criterion for acceptable viability was >70% survival.
Cell viability was determined as follows. After exposure to each compound (duplicate wells per compound), 50 μl of CellTitier-Glo Luminescent Cell Viability Assay reagent (G7571, Promega) was added to the 100 μl of media present in each well, and the luminescent signal (reflecting intracellular ATP level) was detected with either a Victor 3-V plate reader (Perkin Elmer) or GloRunner Microplate Luminometer (Turner Biosystems). Cell viability was expressed as a percent of non-treated control cells.
A dose-response curve was created for each compound (0.1, 0.5, 1, 5, 10, 15, 20 μM) using 48 hr exposures. The MTDcc (“maximum tolerated dose—cell culture”) indicates the highest concentration that retained at least 70% cell viability. Each compound and concentration was analyzed in quadruplicate wells. EGCDG: epigallocatechin 3,5-digallate; NPPB: 5-nitro-2-phenylproplyaminobenzoic acid. As used herein, MTDcc refers to the MTD as determined by this assay under the above conditions.

[2] = tertiary screen, 48 hr exposure, 0.1-20 μM, highest concentration that retained at least 70% cell viability

CC(=O)Nc1ccc(OC(=O)c2ccccc2O)cc1 [4-acetamidophenyl salicylate]
% GFAP reductions, luciferace expression from hGFAP promoter [1]: 17% | % GFAP reductions, mGFAP protein via ELISA (mGFAP protein): 8.6% | MTDcc (172.9 cells; mouse, 48 h): >20 µM

O=C(O)c1cc([N+](=O)[O-])ccc1NCCCc1ccccc1 [5-nitro-2-phenylproplyaminobenzoic acid]
% GFAP reductions, luciferace expression from hGFAP promoter [1]: 16% | % GFAP reductions, mGFAP protein via ELISA (mGFAP protein): 0.4% | MTDcc (172.9 cells; [2]): >20 µM

CC1(C)C(=O)C=C[C@]2(C)[C@H]3CC[C@@]4(C)[C@H](c5ccoc5)OC(=O)[C@H]5O[C@]54[C@]3(C)C=C[C@@H]12 [7-desacetoxy-6,7-dehydrogedunin]
suppression in the promoter assay [1]: significant suppression | suppression in the protein assay (mGFAP protein): significant suppression

CCOC(=O)C1=C(COCCN)NC(C)=C(C(=O)OC)C1c1ccccc1Cl (stereo not drawn) [amlodipine besylate]
suppression in the promoter assay [1]: significant suppression | suppression in the protein assay (mGFAP protein): significant suppression

CCOC(=O)C1=C(COCCN)NC(C)=C(C(=O)OC)C1c1ccccc1Cl (stereo not drawn) [amlodipine]
% GFAP reductions, luciferace expression from hGFAP promoter [1]: 44% | MTDcc (172.9 cells; [2]): 12.5 µM

COP(=S)(OC)SCn1nnc2ccccc2c1=O [azinphos methyl]
% GFAP reductions, luciferace expression from hGFAP promoter [1]: 18% | % GFAP reductions, mGFAP protein via ELISA (mGFAP protein): 4.7% | MTDcc (172.9 cells; [2]): >20 µM

C=C(C)[C@@H]1CC[C@]2(C(=O)O)CC[C@]3(C)[C@H](CC[C@@H]4[C@@]5(C)CC[C@H](O)C(C)(C)[C@@H]5CC[C@]43C)[C@@H]12 [betulinic acid]
% GFAP reductions, luciferace expression from hGFAP promoter [1]: 13% | % GFAP reductions, mGFAP protein via ELISA (mGFAP protein): 6.3% | MTDcc (172.9 cells; mouse, 48 h): >20 µM

O=C(N[C@H](CO)[C@H](O)c1ccc([N+](=O)[O-])cc1)C(Cl)Cl [chloramphenicol]
% GFAP reductions, luciferace expression from hGFAP promoter [1]: 16% | % GFAP reductions, mGFAP protein via ELISA (mGFAP protein): 0.9% | MTDcc (172.9 cells; mouse, 48 h): >20 µM

CN(C)CC/C=C1/c2ccccc2Sc2ccc(Cl)cc21 [chlorprothixene]
% GFAP reductions, luciferace expression from hGFAP promoter [1]: 60% | % GFAP reductions, mGFAP protein via ELISA (mGFAP protein): −3.6% | MTDcc (172.9 cells; mouse, 48 h): 17.5 µM

Cc1cc(O)c2c(c1)C(=O)c1cccc(O)c1C2=O [chrysophanol]
% GFAP reductions, luciferace expression from hGFAP promoter [1]: 66% | % GFAP reductions, mGFAP protein via ELISA (mGFAP protein): 18.6% | MTDcc (172.9 cells; [2]): 12.5 µM

CCC(=O)O[C@]1(C(=O)CCl)[C@@H](C)C[C@H]2[C@@H]3CCC4=CC(=O)C=C[C@]4(C)[C@@]3(F)[C@@H](O)C[C@@]21C [clobetasol propionate]
% GFAP reductions, luciferace expression from hGFAP promoter [1]: 25% | % GFAP reductions, mGFAP protein via ELISA (mGFAP protein): −7.6% | MTDcc (172.9 cells; mouse, 48 h): >20 µM

C=C1CC[C@H](O)C/C1=C/C=C1\CCC[C@]2(C)[C@@H]([C@H](C)CCCC(C)C)CC[C@@H]12 [colecalciferol]
% GFAP reductions, luciferace expression from hGFAP promoter [1]: 24% | % GFAP reductions, mGFAP protein via ELISA (mGFAP protein): −4.9% | MTDcc (172.9 cells; [2]): >20 µM

CCOP(=S)(OCC)Oc1ccc2c(C)c(Cl)c(=O)oc2c1 [coumophos]
% GFAP reductions, luciferace expression from hGFAP promoter [1]: 10% | % GFAP reductions, mGFAP protein via ELISA (mGFAP protein): 0.4% | MTDcc (172.9 cells): >20 µM

CN(C)/N=N/c1[nH]cnc1C(N)=O [decarbazine]
% GFAP reductions, luciferace expression from hGFAP promoter [1]: 7% | % GFAP reductions, mGFAP protein via ELISA (mGFAP protein): 2.4% | MTDcc (172.9 cells; mouse, 48 h): >20 µM

CCOC(=O)NC1=C(N2CC2)C(=O)C(NC(=O)OCC)=C(N2CC2)C1=O [diaziquone]
suppression in the promoter assay [1]: significant suppression | % GFAP reductions, luciferace expression from hGFAP promoter [1]: 86% | suppression in the protein assay (mGFAP protein): significant suppression | % GFAP reductions, mGFAP protein via ELISA (mGFAP protein): 9.5% | MTDcc (172.9 cells; mouse, 48 h): >20 µM

CCCCCCCCCCCC1=C(O)C(=O)C=C(O)C1=O [embelin]
% GFAP reductions, luciferace expression from hGFAP promoter [1]: 37% | % GFAP reductions, mGFAP protein via ELISA (mGFAP protein): 10.8% | MTDcc (172.9 cells; mouse, 48 h): 7.5 µM

C[C@]12CC[C@@H]3c4ccc(OC(=O)c5ccccc5)cc4CC[C@H]3[C@@H]1CC[C@@H]2O [estradiol benzoate]
% GFAP reductions, luciferace expression from hGFAP promoter [1]: 26% | % GFAP reductions, mGFAP protein via ELISA (mGFAP protein): −2.8% | MTDcc (172.9 cells; mouse, 48 h): >20 µM

CC(=O)OCC(=O)[C@@]12OC(C)(C)O[C@@H]1C[C@H]1[C@@H]3C[C@H](F)C4=CC(=O)C=C[C@]4(C)[C@@]3(F)[C@@H](O)C[C@@]12C [fluccinonide]
% GFAP reductions, luciferace expression from hGFAP promoter [1]: 28% | % GFAP reductions, mGFAP protein via ELISA (mGFAP protein): −2.2% | MTDcc (172.9 cells; [2]): >20 µM

OCCN1CCN(CCCN2c3ccccc3Sc3ccc(C(F)(F)F)cc32)CC1 [fluphenazine]
% GFAP reductions, luciferace expression from hGFAP promoter [1]: 23% | % GFAP reductions, mGFAP protein via ELISA (mGFAP protein): −6.7% | MTDcc (172.9 cells; mouse, 48 h): 7.5 µM

CCCCC(CC)CN1CN(CC(CC)CCCC)CC(C)(N)C1 (stereo not drawn) [hexetidine]
% GFAP reductions, luciferace expression from hGFAP promoter [1]: 26% | % GFAP reductions, mGFAP protein via ELISA (mGFAP protein): 6.4% | MTDcc (172.9 cells; mouse, 48 h): >20 µM

O=c1c(-c2cc(O)c(O)c(O)c2)coc2cc(O)c(O)c(O)c12 [irigenol]
suppression in the promoter assay [1]: significant suppression | % GFAP reductions, luciferace expression from hGFAP promoter [1]: 28% | suppression in the protein assay (mGFAP protein): significant suppression | % GFAP reductions, mGFAP protein via ELISA (mGFAP protein): 1.8% | MTDcc (172.9 cells; mouse, 48 h): >20 µM

NC[C@H]1O[C@H](O[C@H]2[C@H](O)[C@@H](O[C@H]3O[C@H](CO)[C@@H](O)[C@H](N)[C@H]3O)[C@H](N)C[C@@H]2N)[C@H](O)[C@@H](O)[C@@H]1O [kanamycin]
% GFAP reductions, luciferace expression from hGFAP promoter [1]: 22% | % GFAP reductions, mGFAP protein via ELISA (mGFAP protein): 11.3% | MTDcc (172.9 cells; mouse, 48 h): >20 µM

CN1CCC(=C2c3ccccc3CC(=O)c3sccc32)CC1 [ketotifen]
% GFAP reductions, luciferace expression from hGFAP promoter [1]: 25% | % GFAP reductions, mGFAP protein via ELISA (mGFAP protein): 8.6% | MTDcc (172.9 cells; mouse, 48 h): >20 µM

CC(C)(C)c1ccc(C(O)CCCN2CCC(C(O)(c3ccccc3)c3ccccc3)CC2)cc1 (stereo not drawn) [terfenadine]
% GFAP reductions, luciferace expression from hGFAP promoter [1]: 14% | MTDcc (172.9 cells; mouse, 48 h): 2.5 µM
